Data as given in US12358983B2, “Combination of anti CD19 antibody with a BCL-2 inhibitor and uses thereof” (Incyte Corporation, priority 2016, dated 2025).
Marks after values point to notes of the source that are not given here.

What was measured:
MEC-1 cells = assay: Cytotoxicity (ADCC assay with NK effector cells) of MOR00208 and venetoclax alone and in combination in MEC-1 cells; format: cell-based
Source text: Cell lines tested: MEC-1 cells (DSMZ# ACC497). Culture conditions of cell lines used are according to supplier's information. Cell Medium: lscove's Modified Dulbecco's Medium (IMDM), Invitrogen, Cat No.: 31980; RPMI1640, Invitrogen, Cat No.: 31870; GlutaMAX, Invitrogen, CAT No.: 35050; FCS: Sigma CAT No.: F7524 LOT No.: 111M3396. NKs: RPMI1640, with GlutaMAX, Invitrogen, Cat No.: 31870, 10% FCS; Biocoll: Biochrome AG CAT No.: L6115 LOT No.: 0034D; MACS NK cell isolation kit: Miltenyi Biotec CAT No.: 130-092-657 LOT No.: 5150402327; venetoclax: Selleck Chem. CAT No.: S8048 LOT No.: S804803; FCS: Sigma CAT No.: F7524 LOT No.: 111M3396; and RefmAb33 (anti-RSV) with same Fc region as MOR00208.
The cytotoxic potential of MOR00208 and venetoclax alone and in combination were tested in the MEC-1 cell line (CLL). Target cell killing is measured using the following parameters: venetoclax mono treatment at concentrations of 3 μM, 6.5 μM, and 10 μM; MOR00208 mono treatment at concentrations of 0.01 pM, 0.1 pM, 1 pM, 10 pM, 100 pM and 10 nM, and the combination treatment of the listed venetoclax and MOR00208 concentrations. The following are used as controls: RefnnAb33, NK cells alone, MEC-1 cells alone or DMSO. In the venetoclax mono groups as well as in the MOR00208+venetoclax combination groups, target cells were pretreated with venetoclax or with DMSO control for 24 hours followed by removal of the dead cells prior to the ADCC assay. A dead cell removal kit was used to remove cells killed by the cytotoxic effect of venetoclax. The dead cell removal kit was implemented to mimick the removal of dead cells that also occurs in vivo and to prevent false negative interference of the dead cells with the subsequent ADCC assay. For the ADCC assay, target cells are counted and stained using CFSE at a final concentration of 1 μg/mL. For the control group, i.e. DMSO treated target cells, the effector: target (E:T) cell ratio was adjusted to 2:1, i.e. 1×10E6/nnL effector cells (NK cells) and 5×10E5/mL target cells (MEC-1 cells). […] The ADCC assays were performed as follows: using 96 well plates, 100 μL of MEC-1 target cell suspension was added per well, followed by 100 μL NK effector cell suspension per well. Mixed cell suspensions were centrifuged and resuspended in 100 μL antibody containing medium or the according control solution. The antibodies were diluted in a range of 10 nM-0.01 pM (corresponds to 1.5 μg/mL-1.5 pg/mL) in medium. The ADCC assays were incubated for 2 hours in a CO2-incubator at 37° C. After 10 minutes incubation on ice, 50 μL DAPI solution was added to each well (final concentration 1 μg/mL) and incubated for additional 10 minutes on ice. The ADCC measurements were performed on a BD FACSVerse instrument. Dead target cells were identified as DAPI positive cells.
Combination Index (CI) calculations are completed in order to determine synergy of the combination of the exemplified anti-CD19 antibody and venetoclax as compared to MOR00208 and venetoclax alone. Such calculations are described in Ting-Chao Chou, Theoretical Basis, Experimental Design, and Computerized Simulation of Synergism and Antagonism in Drug Combination Studies, Pharmacol Rev 58:621-681 (2006), which is incorporated by reference in its entirety and Chou TC, Talalay P, Quantitative analysis of dose-effect relationships: the combined effects of multiple drugs or enzyme inhibitors. Adv Enzyme Regul 22: 27-55 (1984), which is incorporated by reference in its entirety. The methods of Chou-Talalay are carried out using the CI-isobol method.
The median-effect equation models the effect of an inhibitor (such as a drug) as Fa/Fu=(D/D50)^m, where D is the dose, Fa and Fu is the fraction of the system affected and unaffected by the dose D (Fa+Fu=1); D50 is the dose producing the median effect (e.g. IC50, ED50, LD50). The constant m determines the shape of the dose-effect curve.

[1] = tested on: TOLEDO human lymphoma cell tumors; assay: Subcutaneous human lymphoma cell xenograft model in SCID mice; details: for Median Survival (Days Post-Randomization): humane endpoint tumor volume 2000 mm3; for Median % Increase in Doubling Time (IDT) / Median % Increase in Lifespan (ILS): vs. PEP/PBS Control
Method: Toledo cell line and culture medium were purchased and provided by Oncodesign. […] The cells are adherent to plastic flasks.
A statistical test (analysis of variance, ANOVA) was performed to test for homogeneity between groups. MOR208 was injected intraperitoneally (IP) into the peritoneal cavity of mice. Combined substance was administered by oral gavage (per os, PO) via a gavage tube.
The treatment schedule initiated at D23 was as follows:
Animals from group 1 received one daily PO administration of PEP and one IP injection twice a week of PBS.
Animals from group 4 received one IP injection of MOR208 at 11 mg/kg/inj on D23, D27, D30, D34, D37 and D41 followed by a single IP injection of MOR208 at 11 mg/kg/inj on D48 (twice a week).
The viability and behavior were recorded every day. Body weights and tumor volume were measured twice a week. The length and width of the tumor were measured twice a week with calipers and the volume of the tumor was estimated by the formula:

CC1(C)CCC(CN2CCN(c3ccc(C(=O)NS(=O)(=O)c4ccc(NCC5CCOCC5)c([N+](=O)[O-])c4)c(Oc4cnc5[nH]ccc5c4)c3)CC2)=C(c2ccc(Cl)cc2)C1 [Venetoclax, 4-(4-{[2-(4-Chlorophenyl)-4,4-dimethyl-1-cyclohexen-1-yl]methyl}-1-piperazinyl)-N-({3-nitro-4-[(tetrahydro-2H-pyran-4-ylmethyl)amino]phenyl}sulfonyl)-2-(1H-pyrrolo[2,3-b]pyridin-5-yloxy)benzamide, reference compound]
Theoretical Venetoclax Dose (MEC-1 cells; Exp 1, same effect as MOR00208 1.50E+00 μg/mL + venetoclax 3.0 μM): 16.0 µM
Theoretical Venetoclax Dose (MEC-1 cells; Exp 1, same effect as MOR00208 1.50E+00 μg/mL + venetoclax 6.5 μM): 23.9 µM
Theoretical Venetoclax Dose (MEC-1 cells; Exp 1, same effect as MOR00208 1.50E+00 μg/mL + venetoclax 10.0 μM): 28.4 µM
Theoretical Venetoclax Dose (MEC-1 cells; Exp 1, same effect as MOR00208 1.50E−02 μg/mL + venetoclax 3.0 μM): 15.1 µM
Theoretical Venetoclax Dose (MEC-1 cells; Exp 1, same effect as MOR00208 1.50E−02 μg/mL + venetoclax 6.5 μM): 21.9 µM
Theoretical Venetoclax Dose (MEC-1 cells; Exp 1, same effect as MOR00208 1.50E−02 μg/mL + venetoclax 10.0 μM): 23.0 µM
Theoretical Venetoclax Dose (MEC-1 cells; Exp 1, same effect as MOR00208 1.50E−03 μg/mL + venetoclax 3.0 μM): 10.4 µM
Theoretical Venetoclax Dose (MEC-1 cells; Exp 1, same effect as MOR00208 1.50E−03 μg/mL + venetoclax 6.5 μM): 12.7 µM
Theoretical Venetoclax Dose (MEC-1 cells; Exp 1, same effect as MOR00208 1.50E−03 μg/mL + venetoclax 10.0 μM): 14.0 µM
Theoretical Venetoclax Dose (MEC-1 cells; Exp 1, same effect as MOR00208 1.50E−04 μg/mL + venetoclax 3.0 μM): 7.2 µM
Theoretical Venetoclax Dose (MEC-1 cells; Exp 1, same effect as MOR00208 1.50E−04 μg/mL + venetoclax 6.5 μM): 8.5 µM
Theoretical Venetoclax Dose (MEC-1 cells; Exp 1, same effect as MOR00208 1.50E−04 μg/mL + venetoclax 10.0 μM): 8.9 µM
Theoretical Venetoclax Dose (MEC-1 cells; Exp 1, same effect as MOR00208 1.50E−05 μg/mL + venetoclax 3.0 μM): 6.3 µM
Theoretical Venetoclax Dose (MEC-1 cells; Exp 1, same effect as MOR00208 1.50E−05 μg/mL + venetoclax 6.5 μM): 6.9 µM
Theoretical Venetoclax Dose (MEC-1 cells; Exp 1, same effect as MOR00208 1.50E−05 μg/mL + venetoclax 10.0 μM): 7.4 µM
Theoretical Venetoclax Dose (MEC-1 cells; Exp 1, same effect as MOR00208 1.50E−06 μg/mL + venetoclax 10.0 μM): 6.4 µM
Actual Venetoclax Effect (MEC-1 cells; Exp 1, venetoclax 3.0 μM): 8.9 % dead cells
Actual Venetoclax Effect (MEC-1 cells; Exp 1, venetoclax 6.5 μM): 17.7 % dead cells
Actual Venetoclax Effect (MEC-1 cells; Exp 1, venetoclax 10.0 μM): 38.8 % dead cells
Theoretical Venetoclax Dose (MEC-1 cells; Exp 2, same effect as MOR00208 1.50E+00 μg/mL + venetoclax 3.0 μM): 11.2 µM
Theoretical Venetoclax Dose (MEC-1 cells; Exp 2, same effect as MOR00208 1.50E+00 μg/mL + venetoclax 6.5 μM): 12.5 µM
Theoretical Venetoclax Dose (MEC-1 cells; Exp 2, same effect as MOR00208 1.50E+00 μg/mL + venetoclax 10.0 μM): 17.6 µM
Theoretical Venetoclax Dose (MEC-1 cells; Exp 2, same effect as MOR00208 1.50E−02 μg/mL + venetoclax 3.0 μM): 10.6 µM
Theoretical Venetoclax Dose (MEC-1 cells; Exp 2, same effect as MOR00208 1.50E−02 μg/mL + venetoclax 6.5 μM): 11.9 µM
Theoretical Venetoclax Dose (MEC-1 cells; Exp 2, same effect as MOR00208 1.50E−02 μg/mL + venetoclax 10.0 μM): 15.0 µM
Theoretical Venetoclax Dose (MEC-1 cells; Exp 2, same effect as MOR00208 1.50E−03 μg/mL + venetoclax 3.0 μM): 8.6 µM
Theoretical Venetoclax Dose (MEC-1 cells; Exp 2, same effect as MOR00208 1.50E−03 μg/mL + venetoclax 6.5 μM): 9.4 µM
Theoretical Venetoclax Dose (MEC-1 cells; Exp 2, same effect as MOR00208 1.50E−03 μg/mL + venetoclax 10.0 μM): 11.3 µM
Theoretical Venetoclax Dose (MEC-1 cells; Exp 2, same effect as MOR00208 1.50E−04 μg/mL + venetoclax 3.0 μM): 7.3 µM
Theoretical Venetoclax Dose (MEC-1 cells; Exp 2, same effect as MOR00208 1.50E−04 μg/mL + venetoclax 6.5 μM): 7.9 µM
Theoretical Venetoclax Dose (MEC-1 cells; Exp 2, same effect as MOR00208 1.50E−04 μg/mL + venetoclax 10.0 μM): 8.8 µM
Theoretical Venetoclax Dose (MEC-1 cells; Exp 2, same effect as MOR00208 1.50E−05 μg/mL + venetoclax 3.0 μM): 6.6 µM
Theoretical Venetoclax Dose (MEC-1 cells; Exp 2, same effect as MOR00208 1.50E−05 μg/mL + venetoclax 6.5 μM): 7.1 µM
Theoretical Venetoclax Dose (MEC-1 cells; Exp 2, same effect as MOR00208 1.50E−05 μg/mL + venetoclax 10.0 μM): 8.0 µM
Theoretical Venetoclax Dose (MEC-1 cells; Exp 2, same effect as MOR00208 1.50E−06 μg/mL + venetoclax 6.5 μM): 6.7 µM
Theoretical Venetoclax Dose (MEC-1 cells; Exp 2, same effect as MOR00208 1.50E−06 μg/mL + venetoclax 10.0 μM): 7.2 µM
Actual Venetoclax Effect (MEC-1 cells; Exp 2, venetoclax 3.0 μM): 19.9 % dead cells
Actual Venetoclax Effect (MEC-1 cells; Exp 2, venetoclax 6.5 μM): 32.4 % dead cells
Actual Venetoclax Effect (MEC-1 cells; Exp 2, venetoclax 10.0 μM): 73.9 % dead cells
Theoretical Venetoclax Dose (MEC-1 cells; Exp 3, same effect as MOR00208 1.50E+00 μg/mL + venetoclax 3.0 μM): 16.6 µM
Theoretical Venetoclax Dose (MEC-1 cells; Exp 3, same effect as MOR00208 1.50E+00 μg/mL + venetoclax 6.5 μM): 29.4 µM
Theoretical Venetoclax Dose (MEC-1 cells; Exp 3, same effect as MOR00208 1.50E+00 μg/mL + venetoclax 10.0 μM): 31.0 µM
Theoretical Venetoclax Dose (MEC-1 cells; Exp 3, same effect as MOR00208 1.50E−02 μg/mL + venetoclax 3.0 μM): 15.4 µM
Theoretical Venetoclax Dose (MEC-1 cells; Exp 3, same effect as MOR00208 1.50E−02 μg/mL + venetoclax 6.5 μM): 22.3 µM
Theoretical Venetoclax Dose (MEC-1 cells; Exp 3, same effect as MOR00208 1.50E−02 μg/mL + venetoclax 10.0 μM): 31.0 µM
Theoretical Venetoclax Dose (MEC-1 cells; Exp 3, same effect as MOR00208 1.50E−03 μg/mL + venetoclax 3.0 μM): 10.2 µM
Theoretical Venetoclax Dose (MEC-1 cells; Exp 3, same effect as MOR00208 1.50E−03 μg/mL + venetoclax 6.5 μM): 12.2 µM
Theoretical Venetoclax Dose (MEC-1 cells; Exp 3, same effect as MOR00208 1.50E−03 μg/mL + venetoclax 10.0 μM): 18.4 µM
Theoretical Venetoclax Dose (MEC-1 cells; Exp 3, same effect as MOR00208 1.50E−04 μg/mL + venetoclax 3.0 μM): 7.9 µM
Theoretical Venetoclax Dose (MEC-1 cells; Exp 3, same effect as MOR00208 1.50E−04 μg/mL + venetoclax 6.5 μM): 9.0 µM
Theoretical Venetoclax Dose (MEC-1 cells; Exp 3, same effect as MOR00208 1.50E−04 μg/mL + venetoclax 10.0 μM): 11.6 µM
Theoretical Venetoclax Dose (MEC-1 cells; Exp 3, same effect as MOR00208 1.50E−05 μg/mL + venetoclax 3.0 μM): 6.4 µM
Theoretical Venetoclax Dose (MEC-1 cells; Exp 3, same effect as MOR00208 1.50E−05 μg/mL + venetoclax 6.5 μM): 7.5 µM
Theoretical Venetoclax Dose (MEC-1 cells; Exp 3, same effect as MOR00208 1.50E−05 μg/mL + venetoclax 10.0 μM): 9.6 µM
Theoretical Venetoclax Dose (MEC-1 cells; Exp 3, same effect as MOR00208 1.50E−06 μg/mL + venetoclax 6.5 μM): 6.4 µM
Theoretical Venetoclax Dose (MEC-1 cells; Exp 3, same effect as MOR00208 1.50E−06 μg/mL + venetoclax 10.0 μM): 8.4 µM
Actual Venetoclax Effect (MEC-1 cells; Exp 3, venetoclax 3.0 μM): 7.7 % dead cells
Actual Venetoclax Effect (MEC-1 cells; Exp 3, venetoclax 6.5 μM): 16.3 % dead cells
Actual Venetoclax Effect (MEC-1 cells; Exp 3, venetoclax 10.0 μM): 48.1 % dead cells
Median Tumor Doubling Time ([1]; ABT-199 20 mg/kg p.o. daily): 9.6^a Days
Median Survival (Days Post-Randomization) ([1]; ABT-199 20 mg/kg p.o. daily): 30.0^a Days
Median % Increase in Doubling Time (IDT) ([1]; ABT-199 20 mg/kg p.o. daily): 44%
Median % Increase in Lifespan (ILS) ([1]; ABT-199 20 mg/kg p.o. daily): 43%
Median Tumor Doubling Time ([1]; ABT-199 40 mg/kg p.o. daily): 11.1^a Days
Median Survival (Days Post-Randomization) ([1]; ABT-199 40 mg/kg p.o. daily): 36.2^a Days
Median % Increase in Doubling Time (IDT) ([1]; ABT-199 40 mg/kg p.o. daily): 64%
Median % Increase in Lifespan (ILS) ([1]; ABT-199 40 mg/kg p.o. daily): 72%
